In BindingDB's records for doi:10.1021/jm0101803 (University of Illinois At Chicago, 2001):

Biological target: Beta-secretase 1 (Homo sapiens, UniProt P56817)
Experiment: Enzyme Inhibition Measurements
Settings: pH 4.5; 37 °C
Protocol: Enzyme activities were assayed by monitoring the hydrolysis of substrate in the presence or absence of inhibitor compounds. The hydrolysis was recorded as the increase in fluorescence intensity over a 10 min time period. […] The Ki was calculated by using Ki = IC50/ (1 + [S]/Km), and a Km value determined according to Michaelis-Menten.

Sequence of Beta-secretase 1 (P56817 whole entry): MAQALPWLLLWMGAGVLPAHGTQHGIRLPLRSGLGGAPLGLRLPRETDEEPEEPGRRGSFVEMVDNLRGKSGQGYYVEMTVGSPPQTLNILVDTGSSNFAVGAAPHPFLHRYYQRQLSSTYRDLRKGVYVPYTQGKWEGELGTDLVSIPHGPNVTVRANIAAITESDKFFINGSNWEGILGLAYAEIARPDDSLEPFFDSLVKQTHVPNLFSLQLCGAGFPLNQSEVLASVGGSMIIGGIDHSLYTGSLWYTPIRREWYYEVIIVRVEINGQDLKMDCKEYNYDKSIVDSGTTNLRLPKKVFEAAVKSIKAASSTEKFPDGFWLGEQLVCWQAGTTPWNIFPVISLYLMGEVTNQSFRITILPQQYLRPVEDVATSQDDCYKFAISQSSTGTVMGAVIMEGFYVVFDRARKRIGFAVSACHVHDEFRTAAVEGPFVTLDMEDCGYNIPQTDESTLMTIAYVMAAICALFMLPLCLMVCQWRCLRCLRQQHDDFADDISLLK

Ki: 36 nM
Structure (SMILES): CC(C)C[C@H](NC(=O)[C@H](CC(N)=O)NC(=O)[C@@H](N)C(C)C)[C@@H](O)C[C@@H](C)C(=O)N[C@@H](C)C(=O)N[C@@H](CCC(=O)O)C(=O)N[C@@H](Cc1ccccc1)C(=O)O [Val-Asn-LeuAla-Ala-Glu-Phe]
